The source of these data is US7598418B2, “Amide derivatives” (Institute of Medicinal Molecular Design, Inc., priority 2002, dated 2009).

Molecules are shown by their SMILES.

For this assay, the system named is Jurkat cells. The assay can be described thus: Jurkat cell proliferation, MTS method: compound alone or combined with bleomycin. On the set-up: key: ┌++┘ indicates observation of remarkable enhancement; ┌+┘ indicates moderated enhancement. To be noted: compound plus bleomycin 5 μg/ml or 10 μg/ml, 36 hours, survival rate vs DMSO control. It is filed as cell-based. The protocol: By using aforementioned synthetic compounds, effects on proliferation of Jurkat cells by sole administration and inhibitory effects on cell proliferation by administration in combination with bleomycin were examined. Materials and methods are as follows. Jurkat cells obtained from Dainippon Pharmaceutical Co. Ltd. were inoculated at about 10,000 cells per well in a 96 well culture plate, and incubated in 10% bovine fetal serum (Irvine Scientific) supplemented with RPMI1640 (ICN) medium in 5% CO2 incubator at 37° C. […] 36 hours after the incubation, the number of living cells was counted by the MTS method.
More specifically, 20 μl of CellTiter96™ AQueous One Solution (Promega) was added per one well, and after the cells were incubated for additional one hour, an absorbance at 490 nm was measured by using a microplate reader. The same culture added with DMSO as a solvent at final concentration of 0.25% was used as a control. The number of cells in the control was considered as 100% survival rate, and for each compound, survival rates by sole administration or a combined administration were calculated. […] In the table, ┌++┘ indicates observation of remarkable enhancement, ┌+┘ indicates moderated enhancement.
In general terms: Tetrazolium assays rely on reduction of a dye to a coloured formazan, in cell work by metabolically active cells.
Take `Cc1ccc(S(=O)(=O)Oc2cccc3c(S(=O)(=O)NCc4ccccc4)cccc23)cc1` [Compound 1-1, N-Benzyl-5-{[(4-methylphenyl)sulfonyl]oxy}naphthalene-1-sulfonamide]: the “Activity (enhancement of inhibitory effect on cell proliferation in combination with bleomycin)” value is listed as “++”.

With `Cc1ccc(S(=O)(=O)Oc2cccc3c(S(=O)(=O)NCc4c(F)cccc4F)cccc23)cc1` [Compound 1-2, N-(2,6-Difluorobenzyl)-5-{[(4-methylphenyl)sulfonyl]oxy}naphthalene-1-sulfonamide], the “Activity (enhancement of inhibitory effect on cell proliferation in combination with bleomycin)” value was “+”. On to `Cc1ccc(S(=O)(=O)Oc2cccc3c(S(=O)(=O)NCc4ccc(Cl)cc4Cl)cccc23)cc1` [Compound 1-3, N-(2,4-Dichlorobenzyl)-5-{[(4-methylphenyl)sulfonyl]oxy}naphthalene-1-sulfonamide], for which the “Activity (enhancement of inhibitory effect on cell proliferation in combination with bleomycin)” value is “++”. Take `Cc1ccc(S(=O)(=O)Oc2cccc3c(S(=O)(=O)NCc4ccc([N+](=O)[O-])cc4)cccc23)cc1` [Compound 1-5, N-(4-Nitrobenzyl)-5-{[(4-methylphenyl)sulfonyl]oxy}naphthalene-1-sulfonamide]: the “Activity (enhancement of inhibitory effect on cell proliferation in combination with bleomycin)” value was “++”. The same measure for `Cc1ccc(S(=O)(=O)Oc2cccc3c(S(=O)(=O)NCc4ccccc4C)cccc23)cc1` [Compound 1-6, N-(2-Methylbenzyl)-5-{[(4-methylphenyl)sulfonyl]oxy}naphthalene-1-sulfonamide]: “++”. Regarding `Cc1ccc(S(=O)(=O)Oc2cccc3c(S(=O)(=O)NCc4ccc(C(C)(C)C)cc4)cccc23)cc1` [Compound 1-7, N-[4-(tert-Butyl)benzyl]-5-{[(4-methylphenyl)sulfonyl]oxy}naphthalene-1-sulfonamide], the “Activity (enhancement of inhibitory effect on cell proliferation in combination with bleomycin)” value was “++”. With `Cc1ccc(S(=O)(=O)Oc2cccc3c(S(=O)(=O)NCc4ccc(C(F)(F)F)cc4)cccc23)cc1` [Compound 1-9, N-[4-(Trifluoromethyl)benzyl]-5-{[(4-methylphenyl)sulfonyl]oxy}naphthalene-1-sulfonamide], the “Activity (enhancement of inhibitory effect on cell proliferation in combination with bleomycin)” value is “++”. With `COc1ccccc1CNS(=O)(=O)c1cccc2c(OS(=O)(=O)c3ccc(C)cc3)cccc12` [Compound 1-11, N-(2-Methoxybenzyl)-5-{[(4-methylphenyl)sulfonyl]oxy}naphthalene-1-sulfonamide], the “Activity (enhancement of inhibitory effect on cell proliferation in combination with bleomycin)” value is recorded as “++”.

On to `COc1cccc(CNS(=O)(=O)c2cccc3c(OS(=O)(=O)c4ccc(C)cc4)cccc23)c1` [Compound 1-12, N-(3-Methoxybenzyl)-5-{[(4-methylphenyl)sulfonyl]oxy}naphthalene-1-sulfonamide], for which the “Activity (enhancement of inhibitory effect on cell proliferation in combination with bleomycin)” value is on record as “+”. Consider `COc1cccc(CNS(=O)(=O)c2cccc3c(OS(=O)(=O)c4ccc(C)cc4)cccc23)c1OC` [Compound 1-13, N-(2,3-Dimethoxybenzyl)-5-{[(4-methylphenyl)sulfonyl]oxy}naphthalene-1-sulfonamide], for which the “Activity (enhancement of inhibitory effect on cell proliferation in combination with bleomycin)” value is recorded as “+”.

For `Cc1ccc(S(=O)(=O)Oc2cccc3c(S(=O)(=O)NCc4ccc5c(c4)OCO5)cccc23)cc1` [Compound 1-15, N-(3,4-Methylenedioxybenzyl)-5-{[(4-methylphenyl)sulfonyl]oxy}naphthalene-1-sulfonamide], the “Activity (enhancement of inhibitory effect on cell proliferation in combination with bleomycin)” value is recorded as “+”.

For the compound `Cc1ccc(S(=O)(=O)Oc2cccc3c(S(=O)(=O)NCc4cccc(N)c4)cccc23)cc1` [Compound 1-16, N-(3-Aminobenzyl)-5-{[(4-methylphenyl)sulfonyl]oxy}naphthalene-1-sulfonamide], the “Activity (enhancement of inhibitory effect on cell proliferation in combination with bleomycin)” value was “+”.

As to `Cc1ccc(S(=O)(=O)Oc2cccc3c(S(=O)(=O)NCc4ccc(N(C)C)cc4)cccc23)cc1` [Compound 1-17, N-[4-(Dimethylamino)benzyl]-5-{[(4-methylphenyl)sulfonyl]oxy}naphthalene-1-sulfonamide], the “Activity (enhancement of inhibitory effect on cell proliferation in combination with bleomycin)” value is reported as “++”.

Turning to `Cc1ccc(S(=O)(=O)Oc2cccc3c(S(=O)(=O)NCc4cccc5ccccc45)cccc23)cc1` [Compound 1-19, N-(1-Naphthylmethyl)-5-{[(4-methylphenyl)sulfonyl]oxy}naphthalene-1-sulfonamide], the “Activity (enhancement of inhibitory effect on cell proliferation in combination with bleomycin)” value was “++”. The same measure for `Cc1ccc(S(=O)(=O)Oc2cccc3c(S(=O)(=O)NCc4ccc(C)o4)cccc23)cc1` [Compound 1-20, N-[(5-Methylfuran-2-yl)methyl]-5-{[(4-methylphenyl)sulfonyl]oxy}naphthalene-1-sulfonamide]: “+”. The same measure for `Cc1ccc(S(=O)(=O)Oc2cccc3c(S(=O)(=O)NCC4CCCCC4)cccc23)cc1` [Compound 1-23, N-Cyclohexylmethyl-5-{[(4-methylphenyl)sulfonyl]oxy}naphthalene-1-sulfonamide]: “+”. With `Cc1ccc(S(=O)(=O)Oc2cccc3c(S(=O)(=O)Nc4ccccc4)cccc23)cc1` [Compound 1-24, N-Phenyl-5-{[(4-methylphenyl)sulfonyl]oxy}naphthalene-1-sulfonamide] the entry was “++”. Take `Cc1ccc(S(=O)(=O)Oc2cccc3c(S(=O)(=O)NCCc4ccccc4)cccc23)cc1` [Compound 1-25, N-(2-Phenethyl)-5-{[(4-methylphenyl)sulfonyl]oxy}naphthalene-1-sulfonamide]: the “Activity (enhancement of inhibitory effect on cell proliferation in combination with bleomycin)” value is listed as “+”.

As to `Cc1ccc(S(=O)(=O)Oc2cccc3c(S(=O)(=O)NC(C)c4ccccc4)cccc23)cc1` (stereo not drawn) [Compound 1-26, N-(1-Phenethyl)-5-{[(4-methylphenyl)sulfonyl]oxy}naphthalene-1-sulfonamide], the “Activity (enhancement of inhibitory effect on cell proliferation in combination with bleomycin)” value is reported as “++”. With `Cc1ccc(S(=O)(=O)Oc2cccc3c(S(=O)(=O)N(C)Cc4ccccc4)cccc23)cc1` [Compound 1-27, N-Benzyl-N-methyl-5-{[(4-methylphenyl)sulfonyl]oxy}naphthalene-1-sulfonamide] the entry was “+”; with `O=S(=O)(NCc1ccc(Cl)cc1Cl)c1cccc2c(O)cccc12` [Compound 2-3, N-(2,4-Dichlorobenzyl)-5-hydroxynaphthalene-1-sulfonamide], “++”. With `CC(C)(C)c1ccc(CNS(=O)(=O)c2cccc3c(O)cccc23)cc1` [Compound 2-7, N-[4-(tert-Butyl)benzyl]-5-hydroxynaphthalene-i-sulfonamide] the entry was “++”; with `O=S(=O)(NCc1ccccc1C(F)(F)F)c1cccc2c(O)cccc12` [Compound 2-8, N-[2-(Trifluoromethyl)benzyl]-5-hydroxynaphthalene-1-sulfonamide], “+”; with `O=S(=O)(NCc1ccc(C(F)(F)F)cc1)c1cccc2c(O)cccc12` [Compound 2-9, N-[4-(Trifluoromethyl)benzyl]-5-hydroxynaphthalene-1-sulfonamide], “+”.
